This experiment relates to B6C3F1 mice, Lewis lung carcinoma iv, survival T/C. As to the kind of experiment: NCI In Vivo Anticancer Drug Screen. Data for tumor model Lewis Lung Carcinoma (intravenous) in B6C3F1 mice. Conditions: endpoint: median survival time, schedule: Q01DX009 (ip), higher = longer survival. A digest of the protocol: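 Read-out is survival, expressed as the treated-group measurement over the vehicle control-group measurement. Animals bore a transplantable tumor and were given compound.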

Where [1] appears, read: dose: 6.25 mg/kg/injection, vehicle: saline with Tween-80.
[2] abbreviates: dose: 12.5 mg/kg/injection, vehicle: saline with Tween-80.
[3] abbreviates: dose: 25.0 mg/kg/injection, vehicle: saline with Tween-80.
Where [4] appears, read: dose: 50.0 mg/kg/injection, vehicle: saline with Tween-80.
The mark [5] stands for this setting: dose: 100.0 mg/kg/injection, vehicle: saline with Tween-80.
The mark [6] stands for this setting: dose: 200.0 mg/kg/injection, vehicle: saline with Tween-80.
Setting [7] is: dose: 50.0 mg/kg/injection, vehicle: water.
Setting [8] is: dose: 100.0 mg/kg/injection, vehicle: water.
Setting [9] is: dose: 3.12 mg/kg/injection, vehicle: saline.
Setting [10] is: dose: 6.25 mg/kg/injection, vehicle: saline.
Setting [11] is: dose: 50.0 mg/kg/injection, vehicle: Klucel (hydroxypropylcellulose) (HPC).
Where [12] appears, read: dose: 100.0 mg/kg/injection, vehicle: Klucel (hydroxypropylcellulose) (HPC).
The mark [13] stands for this setting: dose: 200.0 mg/kg/injection, vehicle: Klucel (hydroxypropylcellulose) (HPC).
[14] abbreviates: dose: 400.0 mg/kg/injection, vehicle: Klucel (hydroxypropylcellulose) (HPC).
The mark [15] stands for this setting: dose: 12.5 mg/kg/injection, vehicle: saline.
[16] abbreviates: dose: 25.0 mg/kg/injection, vehicle: saline.
The mark [17] stands for this setting: dose: 1.56 mg/kg/injection, vehicle: saline.
Where [18] appears, read: dose: 50.0 mg/kg/injection, vehicle: saline.
Setting [19] is: dose: 100.0 mg/kg/injection, vehicle: saline.
Where [20] appears, read: dose: 200.0 mg/kg/injection, vehicle: saline.

Data on 22 molecules can be found in PubChem BioAssay AID276 (DTP/NCI, 2004).

SMILES strings stand for the structures. “And” between values parts separate entries of the source, which are not always exact repeats. Equal entries are not always repeated. Toxic doses and inconclusive results are not listed.

Regarding `Cc1ccc2c(c1)N=C(Nc1ccccc1)N=S2(C)=O` (stereo not given), the T/C by setting is: under setting [1], 99 % of control; under setting [2], 92 % of control; under setting [3], 93 % of control; under setting [4], 95 % of control; under setting [5], 108 % of control; under setting [6], 119 % of control.
As to `[Na+]`, the T/C reads like this: under setting [7], 102 % of control; under setting [8], 99 % of control; (dose: 200.0 mg/kg/injection, vehicle: water) 95 % of control; (dose: 400.0 mg/kg/injection, vehicle: water) 94 % of control; (dose: 800.0 mg/kg/injection, vehicle: water) 108 % of control.
Regarding `Nc1nc2c(C(=O)N3CCCC3)nnn2c2ccccc12`, the T/C runs as follows: under setting [1], 100 % of control; under setting [2], 99 % of control; under setting [3], 100 % of control; under setting [4], 107 % of control; under setting [5], 99 % of control.
With `C/C=C/C=C1/OC(C)=C(C(C)=O)C1=O`, the T/C is, setting by setting: under setting [2], 123 % of control; under setting [3], 108 % of control; under setting [4], 93 % of control; under setting [5], 103 % of control.
As for `CC(C)(C)c1ccc(CN2CCN(C(c3ccccc3)c3ccc(Cl)cc3)CC2)cc1` (stereo not given), the T/C is 117 % of control (dose: 8.0 mg/kg/injection, vehicle: Klucel (hydroxypropylcellulose) (HPC)); 115 % of control (dose: 16.0 mg/kg/injection, vehicle: Klucel (hydroxypropylcellulose) (HPC)); 105 % of control (dose: 32.0 mg/kg/injection, vehicle: Klucel (hydroxypropylcellulose) (HPC)); 103 % of control (dose: 64.0 mg/kg/injection, vehicle: Klucel (hydroxypropylcellulose) (HPC)).
On to `C[n+]1c(-c2cccc3ccccc23)c2cc(N)ccc2c2ccccc21`, for which the T/C by setting is: under setting [9], 94 % of control; under setting [10], 90 % of control.
On to `CC1C=NNC1=O` (stereo not given), for which the T/C by setting is: under setting [11], 103 % of control; under setting [12], 103 % of control; under setting [13], 113 % of control; under setting [14], 121 % of control; (dose: 800.0 mg/kg/injection, vehicle: Klucel (hydroxypropylcellulose) (HPC)) 118 % of control.
Turning to `CNC(=O)OCc1c(COC(=O)NC)c(-c2ccc(Cl)c(Cl)c2)n2c1Cc1ccccc1C2`, the T/C (dose: 12.5 mg/kg/injection, vehicle: distilled water + Tween-80) was 102 % of control; the T/C (dose: 25.0 mg/kg/injection, vehicle: distilled water + Tween-80) is 114 % of control; the T/C (dose: 50.0 mg/kg/injection, vehicle: distilled water + Tween-80) was 101 % of control and 105 % of control.
Regarding `NNC(=S)N/N=C/c1ccccn1`, the T/C reads like this: (dose: 1.56 mg/kg/injection, vehicle: suspension in saline) 102 % of control; (dose: 3.12 mg/kg/injection, vehicle: suspension in saline) 86 % of control; under setting [10], 115 % of control; (dose: 6.25 mg/kg/injection, vehicle: suspension in saline) 98 % of control; under setting [15], 115 % of control; (dose: 12.5 mg/kg/injection, vehicle: suspension in saline) 108 % of control. In addition, the T/C under setting [16] was 154 % of control and the T/C (dose: 25.0 mg/kg/injection, vehicle: suspension in saline) is 101 % of control.
Regarding `CN=C(NC#N)NCCSCc1nc[nH]c1C`, the T/C is, setting by setting: (dose: 12.0 mg/kg/injection, vehicle: Klucel (hydroxypropylcellulose) (HPC)) 104 % of control; (dose: 25.0 mg/kg/injection, vehicle: Klucel (hydroxypropylcellulose) (HPC)) 100 % of control; under setting [11], 103 % of control; under setting [12], 99 % of control; under setting [13], 105 % of control; under setting [14], 95 % of control.
Regarding `CCN(CC)Cc1cc2[nH]c3c4ccc(Cl)cc4ncc3c2cc1OC`, the T/C by setting is: under setting [2], 97 % of control; under setting [3], 101 % of control; under setting [4], 101 % of control.
Regarding `CC[C@H](CC[C@@H](C)C1CC[C@H]2[C@@H]3CC=C4C[C@@H](OP(=O)(N5CC5)N5CC5)CC[C@]4(C)[C@H]3CC[C@]12C)C(C)C` (stereo not given in full), the T/C is 100 % of control under setting [2]; 95 % of control under setting [3]; 97 % of control under setting [4]; 100 % of control under setting [5]; 95 % of control under setting [6].
As for `O=C1C(O)=C(c2ccccc2)C(=O)C(O)=C1c1ccccc1`, the T/C runs as follows: under setting [17], 98 % of control; under setting [9], 98 % of control and 117 % of control; under setting [1], 99 % of control; under setting [10], 99 % of control and 118 % of control; under setting [2], 101 % of control; under setting [15], 108 % of control and 113 % of control. In addition, the T/C is 101 % of control under setting [3]; 98 % of control and 104 % of control under setting [16]; 102 % of control under setting [4]; 94 % of control and 99 % of control under setting [18].
`Brc1c(NC2=NCCN2)ccc2nccnc12`: the T/C reads like this: under setting [17], 103 % of control; under setting [9], 114 % of control; under setting [10], 100 % of control; under setting [15], 101 % of control; under setting [16], 101 % of control; under setting [18], 112 % of control.
Take `NC(=O)NO`: the T/C runs as follows: under setting [18], 94 % of control; under setting [19], 98 % of control; under setting [20], 96 % of control.
On to `c1ccc(P(CCNCCP(c2ccccc2)c2ccccc2)c2ccccc2)cc1`, for which the T/C under setting [3] is 104 % of control and the T/C under setting [4] is 97 % of control.
For the molecule `CCn1cnc2c(=S)nc[nH]c21`, the T/C is, setting by setting: (dose: 12.0 mg/kg/injection, vehicle: saline) 100 % of control; under setting [16], 99 % of control; under setting [18], 104 % of control.
With `O=C(O)CP(=O)(O)O`, the T/C was 94 % of control under setting [15]; 97 % of control under setting [16]; 97 % of control under setting [18]; 95 % of control under setting [19]; 92 % of control under setting [20]; 94 % of control (dose: 400.0 mg/kg/injection, vehicle: saline). For the same molecule, for the setting “dose: 800.0 mg/kg/injection, vehicle: saline”, the T/C was 94 % of control.
Consider `NC(CNC(=O)CBr)C(=O)O` (stereo not given), for which the T/C is, setting by setting: (dose: 6.25 mg/kg/injection, vehicle: water) 102 % of control; (dose: 12.5 mg/kg/injection, vehicle: water) 95 % of control; (dose: 25.0 mg/kg/injection, vehicle: water) 109 % of control; under setting [7], 109 % of control.
`COc1ccc2c(ccc3oc([N+](=O)[O-])cc32)c1`: the T/C is, setting by setting: under setting [2], 98 % of control; under setting [3], 110 % of control; under setting [4], 104 % of control; under setting [5], 100 % of control.
On to `CCCCCC#CC1OC12CCCCC2` (stereo not given), for which the T/C reads like this: under setting [4], 102 % of control; under setting [5], 100 % of control; under setting [6], 88 % of control; (dose: 400.0 mg/kg/injection, vehicle: saline with Tween-80) 91 % of control.
`O=C1CN(CCN2CC(=O)N(CN3CCOCC3)C(=O)C2)CC(=O)N1CN1CCOCC1`: the T/C under setting [8] was 100 % of control.
